Measurements as given in US9593108B2, “Compounds and methods for antiviral treatment” (PTC Therapeutics, Inc., priority 2009, dated 2017).

Assays:
[1] = tested on: HCV replicon RNA (GenBank Accession No. AJ242654); experiment: HCV Replicon Assay (replicon RNA reduction and/or Fluc reporter signal); format: cell-based, Hepatitis C virus; details: Hepatitis C virus, 72 h, replicon-containing cells cultured with test compound for up to 3 days
Outline: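 Bicistronic replicon-containing cells cultured with compound for up to 3 days, with interferon as positive control. Inhibition quantified by replicon RNA reduction and/or Fluc reporter signal; IC50 values generally derived from replicon RNA reduction.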

Structure (SMILES)	melting point	IC50 [1]
C[C@H](NS(=O)(=O)c1ccc(-c2c(C(N)=O)c3cc(C(F)F)cnc3n2C2CCC2)nc1)C(F)(F)F [Cpd 469, 1-cyclobutyl-5-(difluoromethyl)-2-(5-{[(2S)-1,1,1-trifluoropropan-2-yl]sulfamoyl}pyridin-2-yl)-1H-pyrrolo[2,3-b]pyridine-3-carboxamide]	206 to 208 °C	< 500 nM
CC(C)(NS(=O)(=O)c1ccc(-c2c(C(N)=O)c3cc(C(F)(F)F)cnc3n2C2CCCCC2)nc1)C(F)(F)F [Cpd 438, 1-cyclohexyl-5-(trifluoromethyl)-2-{5-[(1,1,1-trifluoro-2-methylpropan-2-yl)sulfamoyl]pyridin-2-yl}-1H-pyrrolo[2,3-b]pyridine-3-carboxamide]	250 to 252 °C	< 500 nM
Cc1cnc2c(c1)c(C#N)c(-c1ccc(NS(=O)(=O)C(C)C)cc1)n2C1CCC1 [Cpd 267, N-[4-(3-cyano-1-cyclobutyl-5-methyl-1H-pyrrolo[2,3-b]pyridin-2-yl)phenyl]propane-2-sulfonamide]	155 to 164 °C	500 to 2000 nM
COc1ccc2c(C#N)c(-c3ncc(S(=O)(=O)NC(CF)CF)cn3)n(C3CCC3)c2n1 [Cpd 42, 2-(3-cyano-1-cyclobutyl-6-methoxy-1H-pyrrolo[2,3-b]pyridin-2-yl)-N-(1,3-difluoropropan-2-yl)pyrimidine-5-sulfonamide]	229 to 230 °C	< 500 nM
Cc1cnc2c(c1)c(C#N)c(-c1ccc(S(=O)(=O)N[C@@H](C)C(F)(F)F)cn1)n2-c1ccccc1F [Cpd 501, 6-[3-cyano-1-(2-fluorophenyl)-5-methyl-1H-pyrrolo[2,3-b]pyridin-2-yl]-N-[(2S)-1,1,1-trifluoropropan-2-yl]pyridine-3-sulfonamide]	128 °C (dec.)	< 500 nM
Cc1cnc2c(C#N)c(-c3ccc(S(=O)(=O)N[C@@H](C)C(F)(F)F)cn3)n(-c3cncs3)c2c1 [Cpd 478, 6-[3-cyano-6-methyl-1-(1,3-thiazol-5-yl)-1H-pyrrolo[3,2-b]pyridin-2-yl]-N-[(2S)-1,1,1-trifluoropropan-2-yl]pyridine-3-sulfonamide]	273 to 275 °C	500 to 2000 nM
C[C@H](NS(=O)(=O)c1ccc(-c2c(C#N)c3cc(S(C)(=O)=O)cnc3n2C2CCCC2)nc1)C(F)(F)F [Cpd 305, 6-[3-cyano-1-cyclopentyl-5-(methylsulfonyl)-1H-pyrrolo[2,3-b]pyridin-2-yl]-N-[(2S)-1,1,1-trifluoropropan-2-yl]pyridine-3-sulfonamide]	260 to 261 °C	< 500 nM
COc1ccc2c(n1)c(C#N)c(-c1ccc(S(=O)(=O)NC(CF)CF)cn1)n2C1CCC1 [Cpd 15, 6-(3-cyano-1-cyclobutyl-5-methoxy-1H-pyrrolo[3,2-b]pyridin-2-yl)-N-(1,3-difluoropropan-2-yl)pyridine-3-sulfonamide]	199 to 201 °C	500 to 2000 nM
NC(=O)c1c(-c2ccc(S(=O)(=O)NC3(C(F)(F)F)CC3)cn2)n(C2CCC2)c2ncc(C(F)F)cc12 [Cpd 472, 1-cyclobutyl-5-(difluoromethyl)-2-(5-{[1-(trifluoromethyl)cyclopropyl]sulfamoyl}pyridin-2-yl)-1H-pyrrolo[2,3-b]pyridine-3-carboxamide]	210 to 212 °C	< 500 nM
C[C@@H](NS(=O)(=O)c1ccc(-c2c(C#N)c3cnc(Cl)cc3n2C2CCCC2)nc1)C(F)(F)F [Cpd 81, 6-(6-chloro-3-cyano-1-cyclopentyl-1H-pyrrolo[3,2-c]pyridin-2-yl)-N-[(2R)-1,1,1-trifluoropropan-2-yl]pyridine-3-sulfonamide]	239 to 240 °C	< 500 nM
Cc1cnc2c(C#N)c(-c3ncc(S(=O)(=O)NC(C)C)cn3)n(C3CCCC3)c2c1 [Cpd 178, 2-(3-cyano-1-cyclopentyl-6-methyl-1H-pyrrolo[3,2-b]pyridin-2-yl)-N-(propan-2-yl)pyrimidine-5-sulfonamide]	263 to 265 °C	< 500 nM
Cc1ccc2c(C#N)c(-c3ccc(S(=O)(=O)NC(C)C)nc3)n(C3CCC3)c2n1 [Cpd 96, 5-(3-cyano-1-cyclobutyl-6-methyl-1H-pyrrolo[2,3-b]pyridin-2-yl)-N-(propan-2-yl)pyridine-2-sulfonamide]	211 to 216 °C	< 500 nM
Cc1cnc2c(c1)c(C#N)c(-c1ccc(S(=O)(=O)N[C@@H](C)C(F)(F)F)cc1)n2C(C)C [Cpd 486, 4-[3-cyano-5-methyl-1-(propan-2-yl)-1H-pyrrolo[2,3-b]pyridin-2-yl]-N-[(2S)-1,1,1-trifluoropropan-2-yl]benzenesulfonamide]	197 to 202 °C	< 500 nM
Cc1cnc2c(C#N)c(-c3ccc(S(=O)(=O)N[C@H](C)C(F)(F)F)cc3)n(C3CCC3)c2c1 [Cpd 217, 4-(3-cyano-1-cyclobutyl-6-methyl-1H-pyrrolo[3,2-b]pyridin-2-yl)-N-[(2R)-1,1,1-trifluoropropan-2-yl]benzenesulfonamide]	252 to 253 °C	2000 to 5000 nM
CCC(NS(=O)(=O)c1ccc(-c2c(C#N)c3cc(Cl)cnc3n2C2CCCC2)nc1)C(F)(F)F (stereo not drawn) [Cpd 260, 6-(5-chloro-3-cyano-1-cyclopentyl-1H-pyrrolo[2,3-b]pyridin-2-yl)-N-(1,1,1-trifluorobutan-2-yl)pyridine-3-sulfonamide]	170 to 174 °C	< 500 nM
COc1cnc2c(c1)c(C(N)=O)c(-c1ccc(S(=O)(=O)N[C@@H](C)C(F)(F)F)cn1)n2C1CCCC1 [Cpd 357, 1-cyclopentyl-5-methoxy-2-(5-{[(2S)-1,1,1-trifluoropropan-2-yl]sulfamoyl}pyridin-2-yl)-1H-pyrrolo[2,3-b]pyridine-3-carboxamide]	263 to 264 °C	< 500 nM
C[C@@H](NS(=O)(=O)c1ccc(-c2c(C#N)c3cc(C4CC4)cnc3n2C2CCC2)nc1)C(F)(F)F [Cpd 118, 6-(3-cyano-1-cyclobutyl-5-cyclopropyl-1H-pyrrolo[2,3-b]pyridin-2-yl)-N-[(2R)-1,1,1-trifluoropropan-2-yl]pyridine-3-sulfonamide]	138 to 147 °C	< 500 nM
CC(C)(C)NS(=O)(=O)c1ccc(-c2c(C#N)c3cc(C(F)(F)F)cnc3n2-c2ccccc2)cc1 [Cpd 337, N-tert-butyl-4-[3-cyano-1-phenyl-5-(trifluoromethyl)-1H-pyrrolo[2,3-b]pyridin-2-yl]benzenesulfonamide]	206 to 208 °C	500 to 2000 nM
C[C@H](NS(=O)(=O)c1ccc(-c2c(C#N)c3cc(Cl)cnc3n2-c2ncccn2)nc1)C(F)(F)F [Cpd 270, 6-[5-chloro-3-cyano-1-(pyrimidin-2-yl)-1H-pyrrolo[2,3-b]pyridin-2-yl]-N-[(2S)-1,1,1-trifluoropropan-2-yl]pyridine-3-sulfonamide]	223 to 225 °C	< 500 nM
C[C@@H](NS(=O)(=O)c1ccc(-c2c(C#N)c3ccc(C4CC4)nc3n2C2CCC2)nc1)C(F)(F)F [Cpd 152, 6-(3-cyano-1-cyclobutyl-6-cyclopropyl-1H-pyrrolo[2,3-b]pyridin-2-yl)-N-[(2R)-1,1,1-trifluoropropan-2-yl]pyridine-3-sulfonamide]	170 to 176 °C	< 500 nM
C[C@H](NS(=O)(=O)c1ccc(-c2c(C#N)c3ccc(OC(F)F)nc3n2C2CCC2)nc1)C(F)(F)F [Cpd 54, 6-[3-cyano-1-cyclobutyl-6-(difluoromethoxy)-1H-pyrrolo[2,3-b]pyridin-2-yl]-N-[(2S)-1,1,1-trifluoropropan-2-yl]pyridine-3-sulfonamide]	176 to 177 °C	< 500 nM
CC(C)(C)NS(=O)(=O)c1ccc(-c2c(C#N)c3cc(F)cnc3n2-c2ccccc2)nc1 [Cpd 519, N-tert-butyl-6-(3-cyano-5-fluoro-1-phenyl-1H-pyrrolo[2,3-b]pyridin-2-yl)pyridine-3-sulfonamide]	239.4 to 241.5 °C	< 500 nM
CSc1cnc2c(c1)c(C#N)c(-c1ccc(S(=O)(=O)NC3(C(F)(F)F)CC3)cn1)n2C1CCCC1 [Cpd 274, 6-[3-cyano-1-cyclopentyl-5-(methylsulfanyl)-1H-pyrrolo[2,3-b]pyridin-2-yl]-N-[1-(trifluoromethyl)cyclopropyl]pyridine-3-sulfonamide]	200 to 203 °C	< 500 nM
C[C@H](NS(=O)(=O)c1ccc(-c2c(C#N)c3cc(F)cnc3n2-c2cnccn2)nc1)C(F)(F)F [Cpd 321, 6-[3-cyano-5-fluoro-1-(pyrazin-2-yl)-1H-pyrrolo[2,3-b]pyridin-2-yl]-N-[(2S)-1,1,1-trifluoropropan-2-yl]pyridine-3-sulfonamide]	212 to 214 °C	< 500 nM
C[C@@H](NS(=O)(=O)c1ccc(-c2c(C#N)c3cc(C(F)(F)F)cnc3n2C2CCC2)nc1)C(F)(F)F [Cpd 228, 6-[3-cyano-1-cyclobutyl-5-(trifluoromethyl)-1H-pyrrolo[2,3-b]pyridin-2-yl]-N-[(2R)-1,1,1-trifluoropropan-2-yl]pyridine-3-sulfonamide]	190 to 192 °C	< 500 nM
NC(=O)c1c(-c2ccc(S(=O)(=O)NC3(C(F)(F)F)CC3)cn2)n(C2CCCCC2)c2ncc(C(F)(F)F)cc12 [Cpd 440, 1-cyclohexyl-5-(trifluoromethyl)-2-(5-{[1-(trifluoromethyl)cyclopropyl]sulfamoyl}pyridin-2-yl)-1H-pyrrolo[2,3-b]pyridine-3-carboxamide]	272 to 275 °C	< 500 nM
N#Cc1c(-c2ccc(S(=O)(=O)NC3(C(F)(F)F)CC3)cn2)n(C2CCC2)c2cc(Cl)ncc12 [Cpd 98, 6-(6-chloro-3-cyano-1-cyclobutyl-1H-pyrrolo[3,2-c]pyridin-2-yl)-N-[1-(trifluoromethyl)cyclopropyl]pyridine-3-sulfonamide]	227 to 228 °C	< 500 nM
